Measured values: patent US8580769B2, “Treatment of obesity, metabolic syndrome, and diabetes with protein kinase C inhibitors” (The United States of America as represented by the …, priority 2011, dated 2013)

Tests used:
[1] = system: FoxO1; test: serine-256 phosphorylation of FoxO1 in human hepatocytes; assay type: cell-based; conditions: inhibitor alone or with insulin
Experimental: After thawing, the hepatocytes were distributed (approximately 10^6 cells per 100 mm plate) and incubated approximately 16 hours overnight in Dulbecco's minimal essential medium containing 5% fetal calf serum, 100 units/ml sodium-penicillin, 100 μg/ml streptomycin-sulfate, 1 μM insulin and 2 μM dexamethasone. After washing, cells were incubated first for 2 hours in William's E medium (Sigma-Aldrich, St. Louis, Mo., catalog no. W1878) containing GLUTAMAX™ (Gibco/Invitrogen, Carlsbad, Calif.), 100 units/ml sodium-penicillin, 100 μg/ml streptomycin-sulfate, 10 μM insulin, 100 nM dexamethasone, and then for 2 hours in William's E medium containing 100 units/ml sodium penicillin, 100 μg/ml streptomycin-sulfate, 100 nM dexamethasone, 0.25 mg/ml transferrin, 0.25 μg/ml sodium selenite and 10 μM insulin. Cells were then washed and incubated for 3 hours in the same medium, but lacking insulin. Where indicated, an aPKC inhibitor was then added and incubation was continued for 30 min, after which, cells were treated either for 15 min with or without 100 nM insulin for acute signaling studies, or for 6 hours, with or without 1 μM insulin for expression studies. After incubation, cells were sonicated in homogenizing buffer. […]

[2] = system: Het-MλKO mice; test: clinical parameters in Het-MλKO mice (model of obesity/metabolic syndrome/T2DM); assay type: in vivo, mouse; conditions: ICAP-treated Mλ-Het KO mice (n = 12), 0.5 mg/kg body weight/day x 8 days s.c., mean ± SEM
[3] = system: aPKC; test: insulin-stimulated tissue aPKC activity in wild type mice after a single ICAPP injection; assay type: in vivo, mouse; conditions: 1.5 mg/kg ICAPP s.c., 2-30 hours, insulin 1 U/kg
Experimental: aPKCι Assays: aPKC enzyme activity was measured as previously described (Standaert et al., J. Biol. Chem. 279:24929-24934, 2004; Sajan et al., J. Lipid Res. 50:1133-1145, 2009; Sajan et al., Diabetologia 52:1197-1207, 2009; Farese et al., J. Clin. Invest. 117:2289-2301, 2007). In brief, aPKCs were immunoprecipitated from cell lysates with a rabbit polyclonal antiserum (Santa Cruz Biotechnologies) that recognizes the C-termini of both PKC-ζ and PKC-λ/ι (whereas mouse (Bandyopadhyay et al., Endocrinol. 141:4120-4127, 2000) and human (present findings) muscle contains mainly PKC-λ and PKC-ι, respectively, and little PKC-ζ, mouse and human liver contains substantial amounts of both PKC-ζ and PKC-λ (Sajan et al., J. Lipid Res. 50:1133-1145, 2009; Matsumoto et al., J. Clin. Invest. 112:935-944, 2003; and present results). Immunoprecipitates were collected on Sepharose-AG beads (Santa Cruz Biotechnologies), and beads were suspended and incubated for 8 minutes at 30° C. in 100 buffer containing 50 mM Tris/HCl (pH, 7.5), 100 μM Na3VO4, 100 μM Na4P2O7, 1 mM NaF, 100 μM PMSF, 4 μg phosphatidylserine (Sigma-Aldrich), 50 μM [γ-^32P]ATP (NEN Life Science Products/Perkin-Elmer, Waltham, Mass.), 5 mM MgCl2, and, as substrate, 40 μM serine analogue of the PKC-ε pseudosubstrate (BioSource/Invitrogen, Carlsbad, Calif.). After incubation, ^32P-labeled substrate was trapped on P-81 filter paper and counted. This assay reflects the specific activity of a constant amount of aPKC (even in Het-MλKO mice) that is immunoprecipitated by supplier-prescribed amounts of antiserum (Farese et al., J. Clin. Invest. 117:2289-2301, 2007; Beeson et al., Diabetes 52:1926-1934, 2003).
(§1) Wild type mice were treated with 1.5 mg/kg ICAPP subcutaneously and after 2-30 hours, the mice were treated with 1 U/kg insulin 15 minutes before euthanasia. aPKC activity was determined as described in Example 1.

[4] = system: FoxO1; test: ser-256 phosphorylation of hepatic FoxO1 in wild type mice after a single ICAPP injection; assay type: in vivo, mouse; conditions: 1.5 mg/kg ICAPP s.c., basally and in response to insulin
Experimental: Western Analyses: Western analyses were conducted as described (Standaert et al., J. Biol. Chem. 279:24929-24934, 2004; Sajan et al., J. Lipid Res. 50:1133-1145, 2009; Sajan et al., Diabetologia 52:1197-1207, 2009; Farese et al., J. Clin. Invest. 117:2289-2301, 2007), using the following antibodies/antisera for immunodetection after resolution of lysate proteins by SDS-PAGE: rabbit polyclonal anti-IRS-1 antiserum (Upstate Cell Signaling); rabbit polyclonal anti-IRS-2 antiserum (Santa Cruz Technologies); rabbit polyclonal anti-PKC-ζ/λ antiserum (Santa Cruz Biotechnologies); rabbit polyclonal anti-PKC-ζ antiserum (gift of Dr. Todd Sacktor); mouse monoclonal anti-PKC-ι/ζ antibodies (Transduction Laboratories/BD, East Rutherford, N.J.); rabbit polyclonal anti-Akt1/2 antiserum (Upstate Cell Signaling); rabbit polyclonal anti-phospho-serine -473-Akt1/2 antiserum (New England BioLabs, Beverly, Mass.): rabbit polyclonal anti-phospho-threonine-410-[…]/-403-PKC-ι/λ antiserum (Upstate Cell Signaling); rabbit polyclonal anti-phospho-threonine-560-PKC-ζ/-555-PKC-ι/λ antiserum (Invitrogen); and anti-p65/RelA subunit of NFκB (Santa Cruz Biotechnologies). […]
as §1

| SMILES | FoxO1 phosphorylation [1] | 10-min-post-insulin serum glucose [2] [mg/dL] | insulin-stimulated aPKC activity in adipose tissue [3] | insulin-stimulated aPKC activity in liver [3] | insulin-stimulated aPKC activity in muscle [3] | ser-256 phosphorylation of hepatic FoxO1 [4] |
| --- | --- | --- | --- | --- | --- | --- |
| O=C([O-])CC([S][Au])C(=O)[O-] (stereo not shown) [ATM, aurothiomalate, reference compound] | insulin-like, or enhanced insulin, effects | – | – | – | – | – |
| NC(=O)c1ncn([C@@H]2C[C@H](CO)[C@@H](O)[C@H]2O)c1N [ICAP, 1H-imidazole-4-carboxamide 5-amino-1-[2,3-dihydroxy-4-[hydroxymethyl]cyclopentyl]-[1R-(1α,2β,3β,4α)]] | – | 91 ± 8 | – | – | – | – |
| NC(=O)c1ncn([C@@H]2C[C@H](COP(=O)(O)O)[C@@H](O)[C@H]2O)c1N [ICAPP, 1H-imidazole-4-carboxamide, 5-amino-1-[2,3-dihydroxy-4-[(phosphonooxy)methyl]cyclopentyl]-[1R-(1α,2β,3β,4α)]] | insulin-like, or enhanced insulin, effects | – | not in either muscle or adipose tissues | diminished | not in either muscle or adipose tissues | increased |
